Structures can show the parent of a compound that is named as a salt.
Tests used:
Format in all cases: cell-based
[1] = molecular target: T1, human S1P3 receptor (S1PR3) (Homo sapiens, UniProt Q99500); assay: Intracellular Ca2+ release (method 1), agonist potency, S1P3; conditions: CHO-K1 cells expressing human S1PR3
T1 construct: host or cells: CHO-K1
Experimental: Agonistic activity and efficacy of compounds was assessed in recombinant cells using method 1 described below.
Agonist potency and efficacy were assessed by measurement of intracellular Ca^2+ release. Recombinant CHO-K1 cells (Euroscreen, Brussels, Belgium) expressing human S1PR5, S1PR1, S1PR3 or S1PR4 receptors, aequorin, and GTP binding protein Gq/i5 were cultured using a medium containing nutrient mixture F-12 Ham (Sigma-Aldrich) with 10% FBS, and 100 μg/mL gentamicin and equilibrated at 5% CO2.
15,000 cells in 20 μL medium were seeded into Biocoat poly-D-Lysine coated 384 well plates (Becton Dickinson #35-6663) and grown to 95% confluency after 24 h.
Culture medium was replaced by an assay buffer consisting of HBBS with Ca^2+ and Mg^2+ (Invitrogen #14025-050), 20 mmol/L Hepes (Sigma-Aldrich #H-3375), 2.5 mmol/L probenecid (Sigma-Aldrich #P-8761, and 0.1% BSA (Sigma-Aldrich #A-7030) pH 7.4. The Calcium 5 no-wash FLIPR assay kit (Molecular Devices #5000625) was performed as described in the kit instructions. Cells were incubated with Calcium 5 dye for 1 h at 37° C., 5% CO2 in the dark. After 45 min adaptation to RT assessment of agonist stimulation of intracellular Ca^2+ release was performed by addition of test compounds at various concentrations obtained by serial dilution. Phospho-fingolimod was used as positive control and reference agonist (intrinsic activity 100%).
Agonism of test compounds at the human S1Px receptors were characterized by the EC50 values (potencies) deduced from a nonlinear 4 parametric logistic curve fit to the measured fluorescence data after normalization to the lower and upper plateaus of the fitted reference agonist's (phospho-fingolimod)effect curve and by their efficacy (Emax) values represented by their maximum achievable effects in % of the reference agonist's efficacy, which is defined as an Emax of 100%.

[2] = molecular target: T2, human S1P1 receptor (S1PR1) (Homo sapiens, UniProt P21453); assay: Intracellular Ca2+ release (method 1), agonist potency, S1P1; conditions: CHO-K1 cells expressing human S1PR1
T2 construct: host or cells: CHO-K1
How it was run: (§1)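 CHO-K1 cells co-expressing the human S1P receptor, aequorin and Gq/i5 were loaded with Calcium 5 dye (1 h, 37° C), then equilibrated 45 min at RT in HBSS/20 mM Hepes/2.5 mM probenecid/0.1% BSA, pH 7.4. Fluorescence upon serially diluted compound fitted by 4-parameter logistic; EC50 and Emax normalized to phospho-fingolimod (100%).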

[3] = molecular target: T3, human S1P5 receptor (S1PR5) (Homo sapiens, UniProt Q9H228); assay: Intracellular Ca2+ release (method 1), agonist potency and efficacy, S1P5; conditions: for Emax: maximum effect in % of reference agonist phospho-fingolimod (100%), read-out: hS1P5 EMax; for EC50: recombinant CHO-K1 cells expressing human S1PR5, aequorin, Gq/i5, Ca2+ release, read-out: S1P5 EC50 range
T3 construct: host or cells: CHO-K1
How it was run: as §1

[4] = molecular target: T4, human S1P4 receptor (S1PR4) (Homo sapiens, UniProt O95977); assay: Intracellular Ca2+ release (method 1), agonist potency, S1P4; conditions: CHO-K1 cells expressing human S1PR4
T4 construct: host or cells: CHO-K1
T4 sequence (O95977 1-384): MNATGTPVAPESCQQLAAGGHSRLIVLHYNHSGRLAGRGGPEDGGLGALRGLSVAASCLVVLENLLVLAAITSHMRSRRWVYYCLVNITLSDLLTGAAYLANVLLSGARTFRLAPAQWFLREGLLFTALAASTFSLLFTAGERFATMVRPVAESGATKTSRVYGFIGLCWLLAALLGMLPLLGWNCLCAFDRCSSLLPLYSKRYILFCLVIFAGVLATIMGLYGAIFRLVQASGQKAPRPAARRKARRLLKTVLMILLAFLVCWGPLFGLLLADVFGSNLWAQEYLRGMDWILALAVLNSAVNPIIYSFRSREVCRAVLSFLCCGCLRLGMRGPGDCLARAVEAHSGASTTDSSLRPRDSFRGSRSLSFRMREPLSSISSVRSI
How it was run: as §1

T2 sequence (P21453 whole entry): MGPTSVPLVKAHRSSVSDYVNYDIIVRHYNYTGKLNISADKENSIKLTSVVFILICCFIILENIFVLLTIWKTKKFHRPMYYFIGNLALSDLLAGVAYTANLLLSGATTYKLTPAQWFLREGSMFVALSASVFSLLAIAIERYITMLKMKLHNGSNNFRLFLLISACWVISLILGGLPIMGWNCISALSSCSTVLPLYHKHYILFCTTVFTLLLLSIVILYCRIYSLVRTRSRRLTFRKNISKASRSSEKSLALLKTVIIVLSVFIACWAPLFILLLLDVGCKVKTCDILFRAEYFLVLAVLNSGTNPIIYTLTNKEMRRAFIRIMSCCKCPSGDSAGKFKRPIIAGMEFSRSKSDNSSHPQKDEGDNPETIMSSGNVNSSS
T3 sequence (Q9H228 whole entry): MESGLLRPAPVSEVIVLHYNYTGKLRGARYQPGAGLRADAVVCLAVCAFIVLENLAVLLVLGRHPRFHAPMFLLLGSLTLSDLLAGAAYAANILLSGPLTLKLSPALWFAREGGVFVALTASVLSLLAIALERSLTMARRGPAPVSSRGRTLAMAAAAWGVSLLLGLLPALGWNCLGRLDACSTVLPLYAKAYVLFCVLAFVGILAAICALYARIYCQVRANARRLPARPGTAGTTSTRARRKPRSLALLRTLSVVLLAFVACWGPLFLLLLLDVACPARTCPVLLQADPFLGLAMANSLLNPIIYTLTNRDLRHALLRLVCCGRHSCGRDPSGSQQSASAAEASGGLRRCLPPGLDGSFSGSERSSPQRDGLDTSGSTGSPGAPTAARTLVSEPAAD
T1 sequence (Q99500 whole entry): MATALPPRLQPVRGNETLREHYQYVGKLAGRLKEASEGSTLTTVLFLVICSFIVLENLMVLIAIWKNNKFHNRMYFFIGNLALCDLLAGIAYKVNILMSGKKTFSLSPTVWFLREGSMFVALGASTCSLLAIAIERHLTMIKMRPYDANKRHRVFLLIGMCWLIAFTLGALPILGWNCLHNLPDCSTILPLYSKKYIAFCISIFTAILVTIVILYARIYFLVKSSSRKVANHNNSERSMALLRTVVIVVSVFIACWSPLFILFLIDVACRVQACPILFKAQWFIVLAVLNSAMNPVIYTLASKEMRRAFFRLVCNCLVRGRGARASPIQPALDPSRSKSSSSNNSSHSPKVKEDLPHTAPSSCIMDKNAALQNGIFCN

Structure (SMILES) | EC50 [1] | EC50 ([2]; cells given as bound) | Emax [3] | EC50 [3] | EC50 ([4]; cells given as bound) | EC50 [4] | EC50 [2]
O=C(O)CCN1Cc2ccc(C#Cc3ccsc3)cc2C2(CC2)C1 [Compound 38, 3-(6′-(thiophen-3-ylethynyl)-1′H-spiro[cyclopropane-1,4′-isoquinolin]-2′(3′H)-yl)propanoic acid] | > 1 µM | > 1 µM | 50 to 100% | 0.01 to 0.1 µM | > 1 µM |  | 
O=C(O)CCN1Cc2ccc(C#Cc3ccccc3)cc2C2(CC2)C1 [Compound 39, 3-(6′-(phenylethynyl)-1′H-spiro[cyclopropane-1,4′-isoquinolin]-2′(3′H)-yl)propanoic acid acetic acid salt (1:1)] | > 1 µM | > 1 µM | 50 to 100% | 0.1 to 1 µM | > 1 µM |  | 
O=C(O)CCN1Cc2ccc(C#Cc3cccc(Cl)n3)cc2C2(CC2)C1 [Compound 40, 3-(6′-((6-chloropyridin-2-yl)ethynyl)-1′H-spiro[cyclopropane-1,4′-isoquinolin]-2′(3′H)-yl)propanoic acid acetic acid salt (1:1)] | > 1 µM | > 1 µM | 50 to 100% | 0.1 to 1 µM |  | 0.1 to 1 µM | 
O=C(O)CCN1Cc2ccc(C#Cc3ccc(F)cc3)cc2C2(CC2)C1 [Compound 41, 3-(6′-((4-fluorophenyl)ethynyl)-1′H-spiro[cyclopropane-1,4′-isoquinolin]-2′(3′H)-yl)propanoic acid acetic acid salt (1:1)] | > 1 µM | > 1 µM | < 50% | 1 to 10 µM | > 1 µM |  | 
CCCn1cc(C#Cc2ccc3c(c2)C2(CC2)CN(CCC(=O)O)C3)cn1 [Compound 42, 3-(6′-((1-propyl-1H-pyrazol-4-yl)ethynyl)-1′H-spiro[cyclopropane-1,4′-isoquinolin]-2′(3′H)-yl)propanoic acid acetic acid salt (1:1)] | > 1 µM | > 1 µM | 50 to 100% | 1 to 10 µM | > 1 µM |  | 
Cc1cccnc1C#Cc1ccc2c(c1)C1(CC1)CN(CCC(=O)O)C2 [Compound 43, 3-(6′-((3-methylpyridin-2-yl)ethynyl)-1′H-spiro[cyclopropane-1,4′-isoquinolin]-2′(3′H)-yl)propanoic acid acetic acid salt (1:1)] | > 1 µM | > 1 µM | 50 to 100% | 1 to 10 µM | > 1 µM |  | 
O=C(O)CCCN1Cc2ccc(C#Cc3ccc(OC4CCCC4)cc3)cc2C2(CC2)C1 [Compound 44, 4-(6′-((4-(cyclopentyloxy)phenyl)ethynyl)-1′H-spiro[cyclopropane-1,4′-isoquinolin]-2′(3′H)-yl)butanoic acid] | > 1 µM |  | > 100% | < 0.01 µM | > 1 µM |  | 0.1 to 1 µM
CCOc1ccc(C#Cc2ccc3c(c2)C2(CC2)CN(CCCC(=O)O)C3)cc1F [Compound 45, 4-(6′-((4-ethoxy-3-fluorophenyl)ethynyl)-1′H-spiro[cyclopropane-1,4′-isoquinolin]-2′(3′H)-yl)butanoic acid] | > 1 µM | > 1 µM | 50 to 100% | < 0.01 µM | > 1 µM |  | 
CC(C)Oc1ccc(C#Cc2ccc3c(c2)C2(CC2)CN(CCCC(=O)O)C3)cc1 [Compound 46, 4-(6′-((4-isopropoxyphenyl)ethynyl)-1′H-spiro[cyclopropane-1,4′-isoquinolin]-2′(3′H)-yl)butanoic acid] | > 1 µM | > 1 µM | > 100% | < 0.01 µM | > 1 µM |  | 
O=C(O)CCCN1Cc2ccc(C#Cc3ccc(OC(F)(F)F)c(F)c3)cc2C2(CC2)C1 [Compound 47, 4-(6′-((3-fluoro-4-(trifluoromethoxy)phenyl)ethynyl)-1′H-spiro[cyclopropane-1,4′-isoquinolin]-2′(3′H)-yl)butanoic acid] | > 1 µM | > 1 µM | > 100% | < 0.01 µM | > 1 µM |  | 
O=C(O)CCCN1Cc2ccc(C#Cc3ccc(OC(F)(F)F)cc3)cc2C2(CC2)C1 [Compound 48, 4-(6′-((4-(trifluoromethoxy)phenyl)ethynyl)-1′H-spiro[cyclopropane-1,4′-isoquinolin]-2′(3′H)-yl)butanoic acid] | > 1 µM | > 1 µM | 50 to 100% | 0.01 to 0.1 µM | > 1 µM |  | 
CC(CC(=O)O)CN1Cc2ccc(C#Cc3c(F)cccc3F)cc2C2(CC2)C1 (stereo not drawn) [Compound 58, 4-(6′-((2,6-difluorophenyl)ethynyl)-1′H-spiro[cyclopropane-1,4′-isoquinolin]-2′(3′H)-yl)-3-methylbutanoic acid] | > 1 µM | > 1 µM | 50 to 100% | < 0.01 µM |  | 0.1 to 1 µM | 
